Measured values taken from patent US11401278B2, “Macrocyclic indole derivatives” (The Broad Institute, Inc., priority 2017, dated 2022).
Where a name gives a salt, the structure may show the parent alone. Read-outs that look alike come from different tables or passages of the source.

What was measured:
[1] = test system: SUDHL5; assay: Antiproliferation assay (Assay 7), SUDHL5; type: cell-based; settings: CellTiter-Glo, median, read-out: Antiproli SUDHL5 [M] (median) IC50
Experimental: (§1) Assessment of the Anti-Proliferative Effect of Compounds in Different Cell Lines
(§2) The impact of compounds on the proliferation of different cell lines was assessed using the CellTiter-Glo® Luminescent Cell Viability reagent from Promega (G7573).
(§3) In parallel, cells were plated in a reference (day 0) plate for time zero determination.
(§4) Rim wells were excluded. The cells were incubated for 72 hours in a humidified incubator at 37° C. The day 0 plate was measured by adding 30 μL/well of CTG solution (CellTiter-Glo® Luminescent Cell Viability reagent, Promega G7573) to time zero wells in the reference plate followed by a 10 minutes incubation and luminescence reading at 0.1 ms. using the PHERAstar FS microplate reader (BMG Labtech).
(§5) After 72 hours incubation, the treated plates were measured in the same way as the day 0 plate mentioned above.

[2] = test system: SUDHL10; assay: Induction of caspase-3/7 activity (Assay 4), SUDHL10; type: cell-based; settings: caspase-3/7 induction, median
Experimental: (§6) Cellular Assays Assay 4 Induction of Caspase-3/7 Activity Upon Treatment of Cells with Selected Compounds
(§7) The BH3-domain of MCL-1 sequesters pro-apoptotic proteins, thereby inhibiting apoptosis. In contrast, MCL-1 inhibitors are expected to antagonize this effect leading to an increase in apoptosis, which can be determined by measuring the activity of caspase-3/7.
(§8) The activity of caspase-3/7 was determined in DLBCL (Diffuse large B-cell lymphoma) cell lines (SUDHL5 and SUDHL10) upon treatment with different compounds, using the Caspase-Glo® 3/7 reagent from Promega (G8092).
(§9) Rim wells were excluded. The cells were incubated for 3 hours in a humidified incubator at 37° C.
(§10) For the evaluation of the results, the background measured with “medium-only” was subtracted from all other values. […] The Bella DRC Master Sheet was used to calculate EC50s, with fixed C0=1 and CI=plateau/max induction for the reference compound.

[3] = molecular target: MCL-1 (Homo sapiens (Human), UniProt Q07820, K194A/K197A/R201A); assay: Protein-protein interaction assay MCL-1/Noxa BH3 peptide (MCL-1 assay, TR-FRET); type: binding; settings: MBP-MCL-1 / Noxa BH3 peptide, median
Experimental: Protein-Protein Interaction Assay: MCL-1/Noxa BH3 Peptide (MCL-1 Assay)
The dose-dependent inhibition by the compounds described in this invention of the interaction between MCL-1 and the BH3 domain of Noxa (both human) was determined using a steady state binding competition assay with time-resolved fluorescence energy transfer (TR-FRET) readout. For that purpose MCL-1 (amino acids 173-329, N-terminal fused to Maltose Binding Protein (MBP) SEQ ID 1) and a synthetic Noxa BH3-derived peptide of sequence Biotin-PEG2-PEG2-PAELEVE-Nva-ATQLRRFGDKLNFRQKLL-amide (SEQ ID 2) served as protein receptor and tracer ligand respectively. The MBP-MCL-1 was purchased from Beryllium (Bedford, Mass., USA). The expression and purification of this protein construct has been described elsewhere (DOI:10.1371/journal.pone.0125010). The Noxa BH3-derived peptide can be obtained from e.g. Biosyntan (Berlin, Germany).
In the assay 11 different concentrations of each compound (0.1 nM, 0.33 nM, 1.1 nM, 3.8 nM, 13 nM, 44 nM, 0.15 μM, 0.51 μM, 1.7 μM, 5.9 μM and 20 μM) were typically measured as duplicates in the same microtiter plate. For that, 100-fold concentrated DMSO solutions were prepared by serial dilutions (1:3.4) of a 2 mM stock solution in a clear, 384-well microtiter plate (Greiner Bio-One, Frickenhausen, Germany). From there, 50 nl were transferred in a dark test plate (Greiner Bio-One, Frickenhausen, Germany). The assay was initiated by addition of 2 μl of a 2.5-fold concentrated MBP-MCL-1 solution (usually for a 1 nM end concentration in 5 μl reaction volume) in aqueous assay buffer [50 mM Tris/HCl pH 7, 100 mM sodium chloride (NaCl), 50 mM potassium fluoride (KF), 0.005% Tween-20, 2 mM DTT, 0.1% bovine gamma globulin (BGG)] to the compounds in the assay plate. This was followed by a 10-minute incubation step at 22° C. for pre-equilibration of the putative complex between MBP-MCL-1 and the compounds. After that, 3 μl of a 1.67-fold concentrated solution (in assay buffer) consisting of Noxa BH3-derived peptide (1 nM end concentration) and TR-FRET detection reagents [1.67 nM anti-MBP-Eu cryptate and 1.67 nM streptavidin-XL665 (both from Cisbio Bioassays, Codolet, France)], were added.
The mixture was incubated in the dark for one hour at 22° C. and then overnight at 4° C. The formation of MCL-1/Noxa complexes was determined by measuring the resonance energy transfer of the anti-MBP-Eu-cryptate antibody to the streptavidin-XL665 present in the reaction. For that purpose, the fluorescence emission at 620 nm and 665 nm after excitation at 330-350 nm was measured in a TR-FRET measuring instrument, for instance a Rubystar or a Pherastar (both from BMG Lab Technologies, Offenburg, Germany) or a Viewlux (Perkin-Elmer). The ratio of the emission at 665 nm and at 622 nm was used as indicator of the amount of MCL-1/NOXA complexes present.
The resulting data (ratio) were normalized, taking 0% inhibition as the mean value of control measurements (usually 32 data points) where all reagents were included. In this case 50 nl DMSO were used instead of compounds. A 100% inhibition corresponded to the mean value of control measurements (usually 32 data points) where all reagents except MCL-1 were included. IC50 values were determined by regression analysis based on a 4 parameter equation (minimum, maximum, IC50, Hill; Y=Max+(Min−Max)/(1+(X/IC50)^HiII) using the Screener Software (Genedata).

[4] = test system: SUDHL5; assay: Induction of cytotoxicity (Assay 6), SUDHL5; settings: read-out: Cytotox SUDHL5 [M] (median) IC50, CellTiter-Glo, 5 hours, SUDHL5
[5] = test system: SUDHL5; assay: Induction of caspase-3/7 activity (Assay 4), SUDHL5; type: cell-based; settings: caspase-3/7 induction, median
Experimental: as §6, §7, §8, §9, §10

[6] = test system: MV-4-11; assay: Antiproliferation assay (Assay 7), MV-4-11; type: cell-based; settings: Homo sapiens, MV4-11, 72 h, CellTiter-Glo, several values per example, read-out: Antiproli MV-4-11 [M] IC50
Experimental: as §1, §2, §3, §4, §5

[7] = test system: AMO-1; assay: Antiproliferation assay (Assay 7), AMO-1; type: cell-based; settings: CellTiter-Glo, several values per example, read-out: Antiproli AMO-1 [M] IC50
Experimental: as §1, §2, §3, §4, §5

[8] = test system: SUDHL10; assay: Induction of cytotoxicity (Assay 6), SUDHL10; settings: read-out: Cytotox SUDHL10 [M] (median) IC50, CellTiter-Glo, 5 hours, SUDHL10
Experimental: Assay 6 Induction of Cytotoxicity Upon Treatment of Cells with Selected Compounds
Therefore, cytotoxicity assays were run in parallel in SUDHL5 and SUDHL10 cells.
The different cell lines were plated in culture medium (RPMI 1640 [GIBCO #22400-089] supplemented with 10% Fetal Bovine Serum) at a density of 3,300 cells in 30 μl/well in a sterile, solid black, flat bottom, polystyrene, TC-treated 384-well microplate (Corning #3571) using Multidrop Combi Reagent Dispenser. As a control, medium without cells was also added to the plate. Cells were incubated in a humidified incubator at 37° C. overnight. On the next day, the cells were treated with compounds (stock solution, 10 mM in DMSO) using the HP D300 Digital Dispenser in a concentration range of 3.3×10e-5 M (33 μM) to 5×10e-9 M (5 nM) in a single-dot curve with at least 16 dilutions and a DMSO concentration of 0.33%. Rim wells were excluded. The cells were incubated for 5 hours in a humidified incubator at 37° C. After this incubation, 30 μl of CellTiter-Glo® Luminescent Cell Viability reagent (Promega, G7573) was added to each well using the Multidrop Combi Reagent Dispenser, followed by 15 minutes incubation on a shaker at room temperature. Finally, luminescence was read at 0.1 ms, with a gain of 3000 using the PHERAstar FS microplate reader (BMG Labtech).

[9] = test system: HMC-1-8; assay: Antiproliferation assay (Assay 7), HMC-1-8; type: cell-based; settings: CellTiter-Glo, 72 hours, several values per example, read-out: Antiproli HMC-1-8 [M] IC50
Experimental: as §1, §2, §3, §4, §5

MCL-1, sequence (Q07820 whole entry K194A/K197A/R201A, looked up): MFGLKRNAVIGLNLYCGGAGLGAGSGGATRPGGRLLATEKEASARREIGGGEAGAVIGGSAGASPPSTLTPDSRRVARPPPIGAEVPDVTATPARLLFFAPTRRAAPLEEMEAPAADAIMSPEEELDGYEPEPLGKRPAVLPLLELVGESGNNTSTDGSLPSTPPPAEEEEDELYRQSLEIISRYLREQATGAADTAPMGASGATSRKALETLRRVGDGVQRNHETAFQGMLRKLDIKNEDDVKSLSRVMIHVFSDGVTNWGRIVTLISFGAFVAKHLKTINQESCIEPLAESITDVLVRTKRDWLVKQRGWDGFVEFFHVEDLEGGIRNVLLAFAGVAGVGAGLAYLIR

CCc1c2c(nn1C)CN(C)S(=O)(=O)CCCn1c(C(=O)O)c(CCCOc3cccc4cc(F)ccc34)c3ccc(Cl)c-2c31 (racemic) [Example 19, (rac)-13-Chloro-12-ethyl-1-(3-((6-fluoronaphthalen-1-yl)oxy)propyl)-8,11-dimethyl-5,6,9,11-tetrahydro-4H,8H-pyrazolo[3′,4′:4,5][1]thia[2,8]diazacycloundecino[6,7,8-hi]indole-2-carboxylic acid 7,7-dioxide]
IC50 ([1]; Homo sapiens, SU-DHL-5, 72 h): 3.1e-07 M | EC50 ([2]; Homo sapiens, SU-DHL10, 3 h): 610 nM | IC50 [3]: 1.8 nM | IC50 ([4]; Homo sapiens, SU-DHL-5, 5 h): 4.6e-07 M | EC50 ([5]; Homo sapiens, SU-DHL-5, 3 h): 420 nM | IC50 [6]: 8.39e-07 M | IC50 ([7]; Homo sapiens, AMO1, 72 h): 1.5e-06 M | IC50 ([8]; Homo sapiens, SU-DHL10, 5 h): 8.5e-07 M

CCc1c2c(nn1C)C(N1CCOCC1)CCN(C)S(=O)(=O)CCCn1c(C(=O)O)c(CCCOc3cccc4cc(F)ccc34)c3ccc(Cl)c-2c31 (racemic) [Example 69, (rac)-15-chloro-14-ethyl-1-(3-((6-fluoronaphthalen-1-yl)oxy)propyl)-8,13-dimethyl-11-(rac)-morpholino-5,6,9,10,11,13-hexahydro-4H,8H-pyrazolo[3′,4′:6,7][1]thia[2,10]diazacyclotridecino[8,9,10-hi]indole-2-carboxylic acid 7,7-dioxide (Mixture of Stereoisomers)]
EC50 ([2]; Homo sapiens, SU-DHL10, 3 h): 650 nM | IC50 [3]: 1.5 nM | IC50 ([4]; Homo sapiens, SU-DHL-5, 5 h): 3.1e-07 M | EC50 ([5]; Homo sapiens, SU-DHL-5, 3 h): 250 nM | IC50 ([8]; Homo sapiens, SU-DHL10, 5 h): 1.3e-06 M

Cc1c2c(nn1C)CN(C)S(=O)(=O)CCCn1c(C(=O)O)c(CCCOc3cccc4ccccc34)c3cccc-2c31 (single isomer, unassigned; enantiomer 1) [Example 11, (+)-2,3,14-Trimethyl-7-[3-(1-naphthyloxy)propyl]-11,12,14,15-tetrahydro-2H,10H-pyrazolo[3′,4′:4,5][1,2,8]thiadiazacycloundecino[6,7,8-hi]indole-8-carboxylic acid 13,13-dioxide-N-ethylethanamine Salt (Enantiomer 1)]
IC50 [4]: 1.6e-06 M | IC50 [8]: 3.7e-06 M

CCc1c2c(nn1C)C(N1CCOCC1)CCN(C)S(=O)(=O)CCCn1c(C(=O)O)c(CCCOc3cccc4cc(F)ccc34)c3ccc(Cl)c-2c31 (single isomer, unassigned; enantiomer 1) [Example 70, (+)-4-chloro-3-ethyl-7-{3-[(6-fluoro-1-naphthyl)oxy]propyl}-2,14-dimethyl-17-(morpholin-4-yl)-11,12,14,15,16,17-hexahydro-2H,10H-pyrazolo[3′,4′:6,7][1,2,10]thiadiazacyclotridecino[8,9,10-hi]indole-8-carboxylic acid 13,13-dioxide trifluoroacetate salt (Enantiomer 1)]
IC50 ([1]; 72 hours): 4e-06 M | EC50 ([2]; 3 hours): 4400 nM | IC50 [9]: 1.5e-05 M | IC50 [3]: 86 nM | IC50 [4]: 2.6e-06 M | EC50 ([5]; 3 hours): 2600 nM | IC50 ([7]; 72 hours): 7.3e-06 M | IC50 [8]: 4.7e-06 M

Cc1c2c(nn1C)CN(C)S(=O)(=O)CCCn1c(C(=O)O)c(CCCOc3cccc4ccccc34)c3cccc-2c31 (single isomer, unassigned; enantiomer 2) [Example 12, (−)-2,3,14-Trimethyl-7-[3-(1-naphthyloxy)propyl]-11,12,14,15-tetrahydro-2H,10H-pyrazolo[3′,4′:4,5][1,2,8]thiadiazacycloundecino[6,7,8-hi]indole-8-carboxylic acid 13,13-dioxide-N-ethylethanamine Salt (Enantiomer 2)]
IC50 [4]: 2.7e-05 M | IC50 [8]: 2.7e-05 M

CCc1c2c(nn1C)CN(CC)S(=O)(=O)CCCn1c(C(=O)O)c(CCCOc3cccc4cc(F)ccc34)c3ccc(Cl)c-2c31 (single isomer, unassigned; enantiomer 2) [Example 58, (−)-4-chloro-3,14-diethyl-7-{3-[(6-fluoronaphthalen-1-yl)oxy]propyl}-2-methyl-13,13-dioxo-10,11,12,13,14,15-hexahydro-2H-13lambda^6-pyrazolo[3′,4′:4,5][1,2,8]thiadiazacycloundecino[6,7,8-hi]indole-8-carboxylic acid N-ethylethanamine Salt (Enantiomer 2)]
IC50 ([1]; 72 hours): 1.5e-05 M | EC50 ([2]; 3 hours): 32000 nM | IC50 [9]: 1.5e-05 M | IC50 [3]: 28 nM | IC50 [4]: 1.2e-05 M | EC50 ([5]; 3 hours): 15000 nM | IC50 ([7]; 72 hours): > 3.3e-05 M

CCc1c2c(nn1C)C(N1CCOCC1)CCN(C)S(=O)(=O)CCCn1c(C(=O)O)c(CCCOc3cccc4cc(F)ccc34)c3ccc(Cl)c-2c31 (single isomer, unassigned; enantiomer 2) [Example 71, (−)-4-chloro-3-ethyl-7-{3-[(6-fluoro-1-naphthyl)oxy]propyl}-2,14-dimethyl-17-(morpholin-4-yl)-11,12,14,15,16,17-hexahydro-2H,10H-pyrazolo[3′,4′:6,7][1,2,10]thiadiazacyclotridecino[8,9,10-hi]indole-8-carboxylic acid 13,13-dioxide trifluoroacetate salt (Enantiomer 2)]
IC50 ([1]; 72 hours): 1.3e-07 M | EC50 ([2]; 3 hours): 140 nM | IC50 [9]: 3.2e-06 M | IC50 [3]: 0.8 nM | IC50 [4]: 1e-07 M | EC50 ([5]; 3 hours): 71 nM | IC50 [8]: 1.5e-07 M
